Test results as given in patent publication US4983622A, “6-substituted-4-dialkylaminotetrahydrobenz(c,d)indoles” (Eli Lilly and Company, priority 1985, dated 1991).

What was measured:
serum corticosteroids = experiment: Serum corticosterone; format: in vivo, Wistar rats; conditions: 0.3 mg/kg s.c., 1 hour; control 7 ± 1; * statistically significant
Protocol: (§1) The following protocol was employed. 150-200 g. Wistar rats were given 0.3 mg/kg subcutaneously of (±)-4-di-n-propylamino-6-substituted-1,3,4,5-tetrahydrobenz[c,d]indole.Then, 60 minutes later each rat was decapitated and the hypothalamus and striatum were dissected out and extracted. The amounts of homovanillic acid (HVA) and 3,4-dihydroxyphenylacetic acid (DOPAC) in the striatum and of 5-hydroxyindoleacetic acid (5HIAA) in the hypothalamus were measured by high-performance liquid chromatography, using electrochemical detection. Serum corticosteroids were also measured. In the table, columns 1 and 2 give the substitution pattern in the compounds of formula IV, columns 3-5, the 5HT or dopamine metabolite concentrations, and column 6, the serum corticosteroids.
(§2) Compounds were injected at 0.3 mg/kg s.c. 1 hour before rats were killed.

[1] = molecular target: ^3 H-serotonin (^3 H-5HT) receptor binding, rat cerebral cortex membranes; experiment: Receptor binding, inhibition of specific ^3 H-5HT (tritiated serotonin) binding; parameters: species or system male Wistar rats; conditions: 15 min at 37°, pH 7.4, 2-3 nM ^3 H-serotonin, read-out: ^3 H-Ligand-IC50, ^3 H-5HT
[2] = molecular target: T1, ^3 H-spiperone receptor binding, rat cerebral cortex membranes (Rattus norvegicus, UniProt P14842); experiment: Receptor binding, inhibition of specific ^3 H-spiperone binding; parameters: species or system male Wistar rats; conditions: 15 min at 37°, pH 7.4, 0.6-0.7 nM ^3 H-spiperone, read-out: ^3 H-Ligand-IC50, ^3 H-SPIP
T1 construct: The cerebral cortex was dissected out and then homogenized and centrifuged; from tissue; host or cells: cerebral cortex membranes of male Wistar rats
T1 sequence (P14842 whole entry): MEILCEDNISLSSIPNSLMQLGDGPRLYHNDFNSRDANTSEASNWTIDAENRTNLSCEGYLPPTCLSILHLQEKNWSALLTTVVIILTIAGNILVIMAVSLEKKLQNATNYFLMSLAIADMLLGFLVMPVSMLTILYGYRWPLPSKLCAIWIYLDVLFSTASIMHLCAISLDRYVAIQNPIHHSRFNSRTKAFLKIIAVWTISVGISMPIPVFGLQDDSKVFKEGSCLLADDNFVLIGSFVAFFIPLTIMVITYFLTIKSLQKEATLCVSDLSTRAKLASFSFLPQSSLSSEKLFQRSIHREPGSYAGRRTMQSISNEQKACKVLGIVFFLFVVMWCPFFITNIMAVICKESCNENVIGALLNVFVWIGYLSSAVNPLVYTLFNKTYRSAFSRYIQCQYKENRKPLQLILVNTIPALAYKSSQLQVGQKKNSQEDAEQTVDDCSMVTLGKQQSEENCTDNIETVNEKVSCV
Protocol: The cerebral cortex was dissected out and then homogenized and centrifuged according to the method described by Nelson and coworkers Mol. Pharmacol., 14, 983-995 (1978), using preincubation in buffer without added monoamine oxidase inhibitor in order to eliminate endogenous serotonin. For receptor binding, each sample contained 300-400 μg. of membrane protein and 10 μM pargyline in addition to the ^3 H-ligand in 1 ml. of 0.05 M Tris buffer, pH=7.4. The assay of serotonin binding was done following the method of Bennett and Snyder, Mol. Pharmacol., 12, 373-389 (1976), and that for tritiated spiperone according to Peroutka and Snyder, Mol. Pharmacol. 16 687-699 (1979). The samples were incubated for 15 minutes at 37° and were then filtered through GF/C glass fiber filter pads using a Brandel M-24 cell harvester modified for receptor binding. After two 5 ml. rinses, the filter discs were put into scintillation vials and counted in 10 ml. of Amersham PCS scintillation fluid. Nonspecific binding of ^3 H-serotonin (^3 H-5HT) was determined in the presence of 10^-5 M serotonin and of ^3 H-spiperone in the presence of 10^-6 M LSD. Specific binding was calculated as the difference between total binding with no added nonradioactive compound and the nonspecific binding.

[3] = system: serotonin metabolites in brain (5HIAA in hypothalamus); experiment: Decrease of serotonin metabolite (5HIAA) in hypothalamus; format: in vivo, Wistar rats; conditions: 0.3 mg/kg s.c., 1 hour; control 2.59 ± .11; * statistically significant
Protocol: (§3) Secondly, as a measure of central serotonin agonist activity, the decrease of serotonin metabolites in brain was measured. Also the measure of dopamine agonist activity was indicated by changes in dopamine metabolites.
as §1, §2

[4] = system: dopamine metabolites in striatum; experiment: Changes in dopamine metabolites (DOPAC, HVA) in striatum; format: in vivo, Wistar rats; conditions: 0.3 mg/kg s.c., 1 hour, * statistically significant; for Dopamine Metabolites In Striatum, HVA: control 4.24 ± .27; for Dopamine Metabolites In Striatum, DOPAC: control 5.58 ± .38
Protocol: as §3, §1, §2

[5] = system: dopamine uptake, bovine striatal membrane; conditions: in vitro; cited from earlier work
[6] = system: serotonin turnover in brain (5-HTP accumulation); experiment: 5-HTP accumulation in hypothalamus after decarboxylase block by m-hydroxybenzylhydrazine (serotonin turnover); format: in vivo, Wistar rats
Protocol: Thirdly, as a measure of central serotonin agonist activity, the test rats received (±)-4-di-n-propylamino-6-methoxy-1,3,4,5-tetrahydrobenz[c,d]indole. The decrease of serotonin turnover in brain was measured as a function of 5-hydroxytryptophane (5-HTP) accumulation when the decarboxylation of 5-HTP is blocked by m-hydroxybenzylhydrazine, using the above protocol, except that thirty minutes after injection of the drug, m-hydroxybenzylhydrazine was injected at 100 mg./kg. i.p. Then, 40 minutes later each rat was decapitated, the hypothalamus dissected out and extracted. The amount of 5-HTP in each extract were measured by high-performance liquid chromatography, using electrochemical detection. In normal rats, 5-HTP brain levels are so low as to be virtually undetectable. Thus, the control group received the same dose of m-hydroxybenzylhydrazine as the test rats but no drug.

serotonin = conditions: Harris and Uhle; cited from earlier work

Row | SMILES | Serum Corticosterone (serum corticosteroids) | IC50 [1] | IC50 [2] | 5HIAA In Hypothalamus [3] | Dopamine Metabolites In Striatum, HVA [4] | Dopamine Metabolites In Striatum, DOPAC [4] | selective dopamine agonist, action in inhibiting dopamine uptake [5] | 5HTP Level in Nanomoles of Hypothalamus ± S.E. ([6]; 0.03 mg/kg, m-hydroxybenzylhydrazine 100 mg/kg i.p., zero dose 1.81 ± 0.11) | 5HTP Level in Nanomoles of Hypothalamus ± S.E. ([6]; 0.10 mg/kg, m-hydroxybenzylhydrazine 100 mg/kg i.p., zero dose 1.81 ± 0.11, * P < .05) | 5HTP Level in Nanomoles of Hypothalamus ± S.E. ([6]; 0.30 mg/kg, m-hydroxybenzylhydrazine 100 mg/kg i.p., zero dose 1.81 ± 0.11, * P < .05) | 5HTP accumulation ([6]; certain dose levels, hypothalamus) | 5HTP Level in Nanomoles of Hypothalamus ± S.E. ([6]; ip, 0.01 mg/kg) | serotonin antagonism (serotonin)
1 | COc1ccc2[nH]cc3c2c1CC(N(C)C)C3 (racemic) [(±)-4-dimethylamino-6-methoxy-1,3,4,5-tetrahydrobenz[c,d]indole] | 41 ± 4 MCG/100 ML | 70 nM | 1490 nM | 1.69 ± .07 NMoles/G | 4.68 ± .21 NMoles/G | 7.15 ± .23 NMoles/G |  |  |  |  |  |  | 
2 | CCCN(CCC)C1Cc2cccc3[nH]cc(c23)C1 (racemic) [(±)-4-di-n-propylamino-1,3,4-5-tetrahydrobenz[c,d]indole] |  |  |  |  |  |  | selective dopamine agonist |  |  |  |  |  | 
3 | CCCN(CCC)C1Cc2c[nH]c3ccc(OC)c(c23)C1 (racemic) [(±)-4-di-n-propylamino-6-methoxy-1,3,4,5-tetrahydrobenz[c,d]indole] | 48 ± 2 MCG/100 ML | 50 nM | 950 nM | 1.51 ± .05 NMoles/G | 2.43 ± .18 NMoles/G | 4.61 ± .10 NMoles/G |  | 1.72 ± 0.07 Nanomoles | 1.16 ± 0.05 Nanomoles | 0.97 ± 0.03 Nanomoles | significantly decreased 5HTP accumulation | 1.85 ± 0.06 Nanomoles | 
4 | CC(=O)NC1Cc2c[nH]c3cccc(c23)C1=O (stereo not shown) [4-acetylamino-5-oxo derivative] |  |  |  |  |  |  |  |  |  |  |  |  | one exception
